Source: ChEMBL document CHEMBL3885861, “Open TG-GATES”

Organism: Rattus norvegicus
Assay: Open TG-GATES - Regimen: Single
Type: toxicity, organism-based, Sprague-Dawley
Design: regimen Single, gender Male, age 6 weeks
Conditions: in vivo, po, route gavage; for APTT / Bas / Eos / Fbg / Hb / Ht / Lym / MCH / MCHC / MCV / Mono / Neu / PT / Plat / RBC / Ret / WBC: tissue Blood; for KIDNEY_L / KIDNEY_R / KIDNEY_TOTAL: tissue Kidney; for LIVER: tissue Liver; for A/G / ALP / ALT / AST / BUN / CRE / Ca / Cl / DBIL / GLC / IP / K / LDH / Na / PL / RALB / TBIL / TC / TG / TP / gamma-GTP: tissue Plasma
[1] = 0 mg/kg, 3 h, dose level Control
[2] = 0 mg/kg, 6 h, dose level Control
[3] = 0 mg/kg, 9 h, dose level Control
[4] = 0 mg/kg, 24 h, dose level Control

## CC(=O)Oc1cc(C(C)C)c(OCCN(C)C)cc1C [MOXISYLYTE]
[1]
  TERMINAL_BW: 216.6 g
  APTT: 21.3 s
  Bas: 0%
  Eos: 1%
  Fbg: 307.8 mg/dL
  Hb: 13 g/dL
  Ht: 37.8%
  Lym: 76.6%
  MCH: 21.2 pg
  MCHC: 34.4%
  MCV: 61.6 fL
  Mono: 2.4%
  Neu: 19.2%
  PT: 16.1 s
  Plat: 118.3 x10_4/uL
  RBC: 614.4 x10_4/ul
  Ret: 8.8%
  WBC: 111.5 x10_2/uL
  KIDNEY_L: 0.9 g
  KIDNEY_R: 0.9 g
  KIDNEY_TOTAL: 1.9 g
  LIVER: 9.9 g
  A/G: 1.3
  ALP: 1431.6 IU/L
  ALT: 41 IU/L
  AST: 73.6 IU/L
  BUN: 14.6 mg/dL
  CRE: 0.2 mg/dL
  Ca: 10.8 mg/dL
  Cl: 106 meq/L
  DBIL: 0.004 mg/dL
  GLC: 186.8 mg/dL
  IP: 7.7 mg/dL
  K: 4.3 meq/L
  LDH: 263.8 IU/L
  Na: 141.6 meq/L
  PL: 137.4 mg/dL
  RALB: 3 g/dL
  TBIL: 0.02 mg/dL
  TC: 79.8 mg/dL
  TG: 57 mg/dL
  TP: 5.3 g/dL
  gamma-GTP: 1 IU/L
[2]
  TERMINAL_BW: 204.4 g
  APTT: 20.5 s
  Bas: 0%
  Eos: 1%
  Fbg: 338.6 mg/dL
  Hb: 13.7 g/dL
  Ht: 39.5%
  Lym: 80.2%
  MCH: 21.4 pg
  MCHC: 34.6%
  MCV: 61.9 fL
  Mono: 1.8%
  Neu: 16.6%
  PT: 16.4 s
  Plat: 129.2 x10_4/uL
  RBC: 638.2 x10_4/ul
  Ret: 8.1%
  WBC: 99.5 x10_2/uL
  KIDNEY_L: 0.9 g
  KIDNEY_R: 1 g
  KIDNEY_TOTAL: 1.9 g
  LIVER: 8.8 g
  A/G: 1.3
  ALP: 1524.2 IU/L
  ALT: 40.2 IU/L
  AST: 76.4 IU/L
  BUN: 10.8 mg/dL
  CRE: 0.1 mg/dL
  Ca: 10.6 mg/dL
  Cl: 106.6 meq/L
  DBIL: 0.024 mg/dL
  GLC: 183.4 mg/dL
  IP: 8.9 mg/dL
  K: 4.4 meq/L
  LDH: 273 IU/L
  Na: 141.4 meq/L
  PL: 125.4 mg/dL
  RALB: 3.1 g/dL
  TBIL: 0.016 mg/dL
  TC: 71.4 mg/dL
  TG: 47.8 mg/dL
  TP: 5.4 g/dL
  gamma-GTP: 1.2 IU/L
[3]
  TERMINAL_BW: 211.6 g
  APTT: 20.8 s
  Bas: 0%
  Eos: 1%
  Fbg: 295.6 mg/dL
  Hb: 13.2 g/dL
  Ht: 38.3%
  Lym: 82.2%
  MCH: 21.6 pg
  MCHC: 34.4%
  MCV: 62.7 fL
  Mono: 2%
  Neu: 14.8%
  PT: 16.1 s
  Plat: 114.1 x10_4/uL
  RBC: 611 x10_4/ul
  Ret: 8.2%
  WBC: 120.9 x10_2/uL
  KIDNEY_L: 1 g
  KIDNEY_R: 1 g
  KIDNEY_TOTAL: 1.9 g
  LIVER: 8.9 g
  A/G: 1.3
  ALP: 1372.2 IU/L
  ALT: 36.8 IU/L
  AST: 72 IU/L
  BUN: 12.8 mg/dL
  CRE: 0.1 mg/dL
  Ca: 10.5 mg/dL
  Cl: 106.6 meq/L
  DBIL: 0.018 mg/dL
  GLC: 184.8 mg/dL
  IP: 9.6 mg/dL
  K: 4.5 meq/L
  LDH: 214 IU/L
  Na: 142.2 meq/L
  PL: 133.2 mg/dL
  RALB: 3 g/dL
  TBIL: 0.014 mg/dL
  TC: 71.8 mg/dL
  TG: 65.4 mg/dL
  TP: 5.4 g/dL
  gamma-GTP: 1 IU/L
[4]
  TERMINAL_BW: 218.4 g
  APTT: 20.3 s
  Bas: 0%
  Eos: 0.8%
  Fbg: 285.6 mg/dL
  Hb: 13.6 g/dL
  Ht: 39.3%
  Lym: 79.2%
  MCH: 21.5 pg
  MCHC: 34.5%
  MCV: 62.3 fL
  Mono: 2.2%
  Neu: 17.4%
  PT: 16.2 s
  Plat: 118.6 x10_4/uL
  RBC: 631.4 x10_4/ul
  Ret: 7.8%
  WBC: 102.9 x10_2/uL
  KIDNEY_L: 1 g
  KIDNEY_R: 1 g
  KIDNEY_TOTAL: 1.9 g
  LIVER: 10 g
  A/G: 1.2
  ALP: 1643.4 IU/L
  ALT: 44.8 IU/L
  AST: 78.2 IU/L
  BUN: 18.4 mg/dL
  CRE: 0.2 mg/dL
  Ca: 10.9 mg/dL
  Cl: 106.8 meq/L
  DBIL: 0 mg/dL
  GLC: 189 mg/dL
  IP: 6.6 mg/dL
  K: 4.3 meq/L
  LDH: 251.4 IU/L
  Na: 142 meq/L
  PL: 151.4 mg/dL
  RALB: 3.1 g/dL
  TBIL: 0.006 mg/dL
  TC: 79.8 mg/dL
  TG: 89 mg/dL
  TP: 5.7 g/dL
  gamma-GTP: 1.2 IU/L
50 mg/kg, 3 h, dose level Low
  TERMINAL_BW: 210.1 g
  APTT: 21.8 s
  Bas: 0%
  Eos: 1.2%
  Fbg: 298.6 mg/dL
  Hb: 13.1 g/dL
  Ht: 38.6%
  Lym: 80%
  MCH: 21 pg
  MCHC: 34%
  MCV: 61.9 fL
  Mono: 2.4%
  Neu: 15.8%
  PT: 16.3 s
  Plat: 122 x10_4/uL
  RBC: 624.4 x10_4/ul
  Ret: 8.5%
  WBC: 93.6 x10_2/uL
  KIDNEY_L: 0.9 g
  KIDNEY_R: 0.9 g
  KIDNEY_TOTAL: 1.9 g
  LIVER: 9.4 g
  A/G: 1.2
  ALP: 1650.4 IU/L
  ALT: 42.8 IU/L
  AST: 80.2 IU/L
  BUN: 13.8 mg/dL
  CRE: 0.1 mg/dL
  Ca: 10.8 mg/dL
  Cl: 107.6 meq/L
  DBIL: 0.002 mg/dL
  GLC: 180.2 mg/dL
  IP: 8.6 mg/dL
  K: 4.5 meq/L
  LDH: 254.2 IU/L
  Na: 142.4 meq/L
  PL: 134.8 mg/dL
  RALB: 3 g/dL
  TBIL: 0.018 mg/dL
  TC: 72.6 mg/dL
  TG: 70.2 mg/dL
  TP: 5.4 g/dL
  gamma-GTP: 1 IU/L
50 mg/kg, 6 h, dose level Low
  TERMINAL_BW: 210.4 g
  APTT: 22.1 s
  Bas: 0%
  Eos: 0.8%
  Fbg: 309.8 mg/dL
  Hb: 13 g/dL
  Ht: 37.8%
  Lym: 77%
  MCH: 21.3 pg
  MCHC: 34.5%
  MCV: 61.7 fL
  Mono: 2.4%
  Neu: 18.8%
  PT: 15.9 s
  Plat: 116 x10_4/uL
  RBC: 612.6 x10_4/ul
  Ret: 8.4%
  WBC: 70 x10_2/uL
  KIDNEY_L: 0.9 g
  KIDNEY_R: 0.9 g
  KIDNEY_TOTAL: 1.9 g
  LIVER: 9 g
  A/G: 1.3
  ALP: 1379.6 IU/L
  ALT: 35.8 IU/L
  AST: 70.6 IU/L
  BUN: 11 mg/dL
  CRE: 0.1 mg/dL
  Ca: 10.6 mg/dL
  Cl: 107.4 meq/L
  DBIL: 0.004 mg/dL
  GLC: 181.4 mg/dL
  IP: 9.2 mg/dL
  K: 4.4 meq/L
  LDH: 189 IU/L
  Na: 141.4 meq/L
  PL: 146.8 mg/dL
  RALB: 3 g/dL
  TBIL: 0.028 mg/dL
  TC: 84.2 mg/dL
  TG: 74 mg/dL
  TP: 5.3 g/dL
  gamma-GTP: 1 IU/L
50 mg/kg, 9 h, dose level Low
  TERMINAL_BW: 208.4 g
  APTT: 20.8 s
  Bas: 0%
  Eos: 0.4%
  Fbg: 309.8 mg/dL
  Hb: 13.3 g/dL
  Ht: 38.7%
  Lym: 83.4%
  MCH: 21.2 pg
  MCHC: 34.4%
  MCV: 61.8 fL
  Mono: 1.4%
  Neu: 14.2%
  PT: 15.8 s
  Plat: 122.4 x10_4/uL
  RBC: 627 x10_4/ul
  Ret: 8.1%
  WBC: 81 x10_2/uL
  KIDNEY_L: 0.9 g
  KIDNEY_R: 0.9 g
  KIDNEY_TOTAL: 1.8 g
  LIVER: 8.6 g
  A/G: 1.3
  ALP: 1432 IU/L
  ALT: 40.6 IU/L
  AST: 71.2 IU/L
  BUN: 12 mg/dL
  CRE: 0.1 mg/dL
  Ca: 10.6 mg/dL
  Cl: 108.2 meq/L
  DBIL: 0.012 mg/dL
  GLC: 182.6 mg/dL
  IP: 9.4 mg/dL
  K: 4.3 meq/L
  LDH: 242.6 IU/L
  Na: 143 meq/L
  PL: 144.8 mg/dL
  RALB: 3.1 g/dL
  TBIL: 0.018 mg/dL
  TC: 82.6 mg/dL
  TG: 84.2 mg/dL
  TP: 5.6 g/dL
  gamma-GTP: 1.2 IU/L
50 mg/kg, 24 h, dose level Low
  TERMINAL_BW: 221.4 g
  APTT: 19.7 s
  Bas: 0%
  Eos: 1%
  Fbg: 309 mg/dL
  Hb: 13.2 g/dL
  Ht: 38.3%
  Lym: 79.4%
  MCH: 21.2 pg
  MCHC: 34.5%
  MCV: 61.5 fL
  Mono: 2.2%
  Neu: 16.8%
  PT: 15.8 s
  Plat: 122.9 x10_4/uL
  RBC: 622.4 x10_4/ul
  Ret: 8.5%
  WBC: 94.4 x10_2/uL
  KIDNEY_L: 0.9 g
  KIDNEY_R: 0.9 g
  KIDNEY_TOTAL: 1.9 g
  LIVER: 10.7 g
  A/G: 1.2
  ALP: 1498.2 IU/L
  ALT: 52.4 IU/L
  AST: 89.6 IU/L
  BUN: 18.4 mg/dL
  CRE: 0.1 mg/dL
  Ca: 11.1 mg/dL
  Cl: 107 meq/L
  DBIL: 0 mg/dL
  GLC: 181.8 mg/dL
  IP: 7.5 mg/dL
  K: 4.4 meq/L
  LDH: 271 IU/L
  Na: 142 meq/L
  PL: 163.4 mg/dL
  RALB: 3.1 g/dL
  TBIL: 0.002 mg/dL
  TC: 84.8 mg/dL
  TG: 117 mg/dL
  TP: 5.8 g/dL
  gamma-GTP: 1.2 IU/L
